# Activity calls are given as the source filed them.
# What was measured:
# [1] = molecular target: T1, Calpain-2 catalytic subunit (Sus scrofa, UniProt P43367); test: m-calpain protease blockers, concentration series – biochemical, fluorogenic peptide substrate, dose response (AID 1420); assay type: functional
# T1 sequence (P43367 whole entry): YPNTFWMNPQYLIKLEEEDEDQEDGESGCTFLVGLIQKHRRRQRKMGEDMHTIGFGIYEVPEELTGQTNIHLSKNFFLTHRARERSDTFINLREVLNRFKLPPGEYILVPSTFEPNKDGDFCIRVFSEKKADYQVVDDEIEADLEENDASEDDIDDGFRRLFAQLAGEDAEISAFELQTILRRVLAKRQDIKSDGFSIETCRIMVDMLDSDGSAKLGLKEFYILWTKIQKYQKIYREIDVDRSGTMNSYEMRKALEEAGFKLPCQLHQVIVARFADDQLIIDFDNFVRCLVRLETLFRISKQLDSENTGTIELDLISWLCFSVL
# [2] = molecular target: T2, Heat shock factor protein 1 (Mus musculus, UniProt P38532); test: enhancement of HSF1-driven luciferase signal – cell-based, NIH3T3, luminescence, dose retest, confirmation (AID 435004); assay type: functional;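 also: stress induced by proteasome inhibitor MG132 added 30 min after compound; luciferase reporter driven by HSF1 response element in NIH3T3 cells; actives raise luminescence as potentiators of the MG132 stress response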
# T2 sequence (P38532 whole entry): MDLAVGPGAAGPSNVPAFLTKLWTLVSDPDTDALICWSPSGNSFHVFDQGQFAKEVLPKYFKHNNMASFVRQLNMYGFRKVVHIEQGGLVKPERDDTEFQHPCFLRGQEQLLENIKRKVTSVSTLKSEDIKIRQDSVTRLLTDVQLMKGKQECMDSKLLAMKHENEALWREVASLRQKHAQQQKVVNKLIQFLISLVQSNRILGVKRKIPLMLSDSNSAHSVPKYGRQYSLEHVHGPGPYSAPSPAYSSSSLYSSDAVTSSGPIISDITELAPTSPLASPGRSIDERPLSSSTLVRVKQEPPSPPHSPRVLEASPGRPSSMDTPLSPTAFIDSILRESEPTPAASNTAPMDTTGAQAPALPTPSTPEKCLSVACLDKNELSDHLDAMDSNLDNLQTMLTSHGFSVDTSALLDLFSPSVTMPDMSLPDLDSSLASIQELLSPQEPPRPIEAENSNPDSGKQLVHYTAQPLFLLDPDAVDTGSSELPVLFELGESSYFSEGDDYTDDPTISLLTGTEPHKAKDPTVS
# Cytochrome P450 2C9 = Cytochrome P450 2C9 (Homo sapiens, UniProt P11712)
# Cytochrome P450 2D6 = Cytochrome P450 2D6 (Homo sapiens, UniProt P10635);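 also: CYP2D6 member of a cytochrome P450 panel assay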
# Cytochrome P450 1A2 = molecular target: T3, Cytochrome P450 1A2 (Homo sapiens, UniProt P05177);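 also: PubChem cytochrome P450 panel assay, CYP1A2 panel member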
# T3 sequence (P05177 whole entry): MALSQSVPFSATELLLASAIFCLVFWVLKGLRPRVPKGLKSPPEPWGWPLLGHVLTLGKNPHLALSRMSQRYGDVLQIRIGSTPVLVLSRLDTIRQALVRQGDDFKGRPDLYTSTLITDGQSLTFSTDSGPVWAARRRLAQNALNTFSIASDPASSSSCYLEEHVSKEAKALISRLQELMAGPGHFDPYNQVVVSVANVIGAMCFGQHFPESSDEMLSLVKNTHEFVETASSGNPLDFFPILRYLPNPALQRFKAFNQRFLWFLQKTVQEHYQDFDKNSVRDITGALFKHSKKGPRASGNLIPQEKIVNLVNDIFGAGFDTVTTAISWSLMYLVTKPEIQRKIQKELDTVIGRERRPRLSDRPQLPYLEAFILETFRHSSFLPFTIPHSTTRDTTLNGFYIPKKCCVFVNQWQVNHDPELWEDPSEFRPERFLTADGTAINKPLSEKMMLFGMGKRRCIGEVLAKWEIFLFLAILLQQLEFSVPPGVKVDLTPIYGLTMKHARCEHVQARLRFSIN
# Leucine aminopeptidase = molecular target: T4, Leucine aminopeptidase (Plasmodium falciparum 3D7, UniProt Q8IL11); test: P. falciparum M17LAP inhibitors, primary screen, biochemical, fluorogenic H-Leu-NHMec substrate, 1536-well (AID 1619); assay type: functional
# T4 sequence (Q8IL11 whole entry): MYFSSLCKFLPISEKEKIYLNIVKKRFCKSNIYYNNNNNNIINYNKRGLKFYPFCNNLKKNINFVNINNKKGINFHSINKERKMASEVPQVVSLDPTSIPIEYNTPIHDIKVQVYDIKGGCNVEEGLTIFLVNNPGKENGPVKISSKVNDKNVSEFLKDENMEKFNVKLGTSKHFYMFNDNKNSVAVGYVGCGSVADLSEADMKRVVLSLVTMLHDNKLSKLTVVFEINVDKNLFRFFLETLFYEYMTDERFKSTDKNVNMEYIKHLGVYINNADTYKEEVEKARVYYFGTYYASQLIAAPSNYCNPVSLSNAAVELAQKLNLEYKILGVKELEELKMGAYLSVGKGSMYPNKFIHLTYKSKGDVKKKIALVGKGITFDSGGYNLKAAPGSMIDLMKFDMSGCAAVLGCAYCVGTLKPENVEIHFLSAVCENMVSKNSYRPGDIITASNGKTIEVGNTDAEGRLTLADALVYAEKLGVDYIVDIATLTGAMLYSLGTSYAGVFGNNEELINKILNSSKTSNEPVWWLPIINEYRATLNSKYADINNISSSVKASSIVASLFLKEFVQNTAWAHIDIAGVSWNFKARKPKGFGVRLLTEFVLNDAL
# [3] = fluconazole-exposed Candida albicans growth modulators – fluorescence, retest, confirmation (AID 2467); assay type: functional, cell-based
# [4] = NIH-3T3 fibroblast cytotoxicity, dose response, cytotoxicity control, cell-based, fluorescence, Alamar Blue, secondary assay (AID 2327); assay type: functional;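 also: NIH-3T3 mouse fibroblasts cultured with fluconazole at 8 µg/mL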
# Cytochrome P450 3A4 = Cytochrome P450 3A4 (Homo sapiens, UniProt P08684);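 also: CYP3A4 tested as one member of a cytochrome P450 panel screen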
# INS1 = test: INS-1E survival protection against cytokine death – cell-based, luminescence, retest, dose response (AID 449756); assay type: functional; conditions: Rattus norvegicus;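 also: cell death triggered by IL-1 beta plus TNF-alpha plus IFN-gamma mixture; protective hits raise ATP signal compared with cytokine alone wells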
# [5] = P. falciparum Dd2 growth inhibitors, dose response, SYBR Green, cherry-picked samples (AID 1159567); assay type: functional, cell-based
# [6] = Luminescence Cell-Based Dose Retest to Confirm Inhibitors of Cancer Stem Cells. [Related pubchem assays (depositor defined):AID2717, AID2721]; assay type: functional; conditions: Homo sapiens
# [7] = reduction of Shn3 3'UTR-driven luciferase in osteoblasts – cell-based, Clone20 osteoblasts, firefly luciferase, cherry-picked, dose response (AID 624132); assay type: functional;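 also: firefly luciferase luminescence from reporter carrying the Shn3 3'UTR in osteoblasts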
# Streptococcus = test: GAS UMAA2166 growth inhibition – luminescence, BacTiterGlo, counter-screen for streptokinase expression inhibitor project, dose response (AID 1915); assay type: functional, organism-based;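 also: potency for reduction of bacterial viability or growth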
# [8] = test system: Streptococcus sp. 'group A'; test: Streptococcus pyogenes SK(-)GAS viability under kanamycin – luminescence, BacTiterGlo, confirmation, counter-screen for streptokinase expression inhibitor project, dose response (AID 1900); assay type: functional, organism-based
# Streptokinase A = molecular target: T5, Streptokinase A (Streptococcus pyogenes serotype M1, UniProt P10520); test: viability-normalized secreted streptokinase activity reduction – plasminogen activation absorbance, OD405, dose response (AID 1914); assay type: functional, Streptococcus pyogenes M1 GAS;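 also: secreted streptokinase activity via plasminogen activation per viability signal from cell pellet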
# T5 sequence (P10520 whole entry): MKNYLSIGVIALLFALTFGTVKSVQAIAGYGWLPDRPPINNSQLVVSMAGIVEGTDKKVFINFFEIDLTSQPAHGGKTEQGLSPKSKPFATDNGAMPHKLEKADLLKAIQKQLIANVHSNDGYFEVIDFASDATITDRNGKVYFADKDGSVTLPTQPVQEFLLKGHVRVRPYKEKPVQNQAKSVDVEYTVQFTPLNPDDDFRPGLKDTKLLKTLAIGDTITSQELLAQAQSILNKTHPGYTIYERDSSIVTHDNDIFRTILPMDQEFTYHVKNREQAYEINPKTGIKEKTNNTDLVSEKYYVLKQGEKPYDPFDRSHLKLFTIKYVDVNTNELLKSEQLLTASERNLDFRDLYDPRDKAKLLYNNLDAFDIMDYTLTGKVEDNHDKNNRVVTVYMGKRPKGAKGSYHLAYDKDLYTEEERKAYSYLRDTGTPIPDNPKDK
# Chain of Cytochrome P450 2D6 (P10635 whole entry): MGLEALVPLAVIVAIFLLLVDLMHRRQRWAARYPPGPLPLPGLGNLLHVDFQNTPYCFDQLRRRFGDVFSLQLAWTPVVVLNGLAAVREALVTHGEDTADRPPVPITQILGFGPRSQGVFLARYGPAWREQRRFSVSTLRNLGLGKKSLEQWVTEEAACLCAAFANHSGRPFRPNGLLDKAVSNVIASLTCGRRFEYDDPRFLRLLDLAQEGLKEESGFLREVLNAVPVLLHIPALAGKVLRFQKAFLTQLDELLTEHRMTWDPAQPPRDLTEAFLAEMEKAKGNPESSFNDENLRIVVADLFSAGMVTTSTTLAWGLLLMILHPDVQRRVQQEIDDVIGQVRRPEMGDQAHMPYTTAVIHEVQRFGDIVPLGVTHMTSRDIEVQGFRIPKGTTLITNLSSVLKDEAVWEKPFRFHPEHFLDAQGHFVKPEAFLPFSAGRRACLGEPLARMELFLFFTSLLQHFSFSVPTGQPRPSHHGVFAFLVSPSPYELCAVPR
# Chain of Cytochrome P450 2C9 (P11712 whole entry): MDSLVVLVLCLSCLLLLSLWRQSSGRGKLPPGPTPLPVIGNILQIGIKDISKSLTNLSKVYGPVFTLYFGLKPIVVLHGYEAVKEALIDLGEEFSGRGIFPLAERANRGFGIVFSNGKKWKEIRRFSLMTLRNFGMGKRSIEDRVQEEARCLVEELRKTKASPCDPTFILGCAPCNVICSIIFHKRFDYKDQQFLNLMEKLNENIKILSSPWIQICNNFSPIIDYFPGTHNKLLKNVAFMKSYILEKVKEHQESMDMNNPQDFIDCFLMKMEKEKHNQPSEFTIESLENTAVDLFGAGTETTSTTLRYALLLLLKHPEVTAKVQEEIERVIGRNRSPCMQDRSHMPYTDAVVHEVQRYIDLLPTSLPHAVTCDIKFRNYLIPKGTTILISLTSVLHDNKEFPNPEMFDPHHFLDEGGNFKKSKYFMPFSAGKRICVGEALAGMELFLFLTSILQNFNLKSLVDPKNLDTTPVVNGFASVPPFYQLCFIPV
# Chain of Cytochrome P450 3A4 (P08684 whole entry): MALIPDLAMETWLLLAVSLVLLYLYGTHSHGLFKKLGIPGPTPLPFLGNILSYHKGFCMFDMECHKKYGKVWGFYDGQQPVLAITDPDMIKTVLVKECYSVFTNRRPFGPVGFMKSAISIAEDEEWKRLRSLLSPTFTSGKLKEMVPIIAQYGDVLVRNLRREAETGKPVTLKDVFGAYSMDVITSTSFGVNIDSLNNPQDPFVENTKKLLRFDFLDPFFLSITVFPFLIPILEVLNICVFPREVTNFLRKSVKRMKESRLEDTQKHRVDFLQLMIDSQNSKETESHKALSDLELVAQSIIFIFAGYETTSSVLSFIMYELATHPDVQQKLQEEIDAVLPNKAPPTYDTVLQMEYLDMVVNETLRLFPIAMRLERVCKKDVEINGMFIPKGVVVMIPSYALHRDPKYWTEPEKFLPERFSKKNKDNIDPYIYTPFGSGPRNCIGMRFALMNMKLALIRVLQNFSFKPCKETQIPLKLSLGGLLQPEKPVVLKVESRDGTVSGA
smiles,measurement,setting,value
S=C(NCc1ccco1)N/N=C/c1ccc(Cl)cc1,IC50,[1],6.94 µM (not active)
same,EC50,[2],> 260 µM (inactive)
COc1cc(N/C=C(\C(C)=O)c2ccccc2)cc(OC)c1,IC50,[1],> 50 µM (not active)
O=C1CCC(c2ccccc2)=NN1c1nc2ccccc2s1,AC50,Cytochrome P450 2C9,3.98 µM (inconclusive)
same,AC50,Cytochrome P450 2D6,3.98 µM (inconclusive)
Cc1ccc(Nc2nc(-c3sc(NC(=O)c4ccc([N+](=O)[O-])cc4)nc3C)cs2)cc1,AC50,Cytochrome P450 1A2,2.24 µM (inconclusive)
same,AC50,Cytochrome P450 2D6,0.01 µM (inconclusive)
O=C(NCCc1c[nH]c2ccccc12)OCCSS(=O)(=O)O,IC50,Leucine aminopeptidase,21.8 µM (active)
COc1ccc(NC(=O)CN2C(=O)C(C)SC(C)C2=O)cc1 (stereo not drawn),IC50,Leucine aminopeptidase,12.2 µM (active)
CC(C)(C)OC(=O)NCCCC[C@H](NC(=O)c1nc[nH]c1C(=O)N[C@@H](CCCCNC(=O)OC(C)(C)C)C(=O)OC(C)(C)C)C(=O)OC(C)(C)C,IC50,[1],3.89 µM (not active)
O=C(N/N=C\c1cccc(Br)c1)c1ccccc1-n1cccc1,IC50,[1],> 50 µM (not active)
CCCn1c(N)c(C(=O)COC(=O)c2c(C)noc2C)c(=O)n(C)c1=O,EC50,[3],> 38 µM (not active)
same,EC50,[4],> 150 µM (inactive)
CN(C)c1ccc(-c2nc(NC3CCNCC3)c3ccccc3n2)cc1,AC50,Cytochrome P450 3A4,31.6 µM (inconclusive)
same,AC50,Cytochrome P450 2D6,39.8 µM (inconclusive)
O=C(Oc1c(CN2CCOCC2)cc(Cl)c2cccnc12)c1ccccc1,EC50,[3],3.71 µM (active)
same,AC50,INS1,4.16 µM (active)
same,EC50,[4],> 150 µM (inactive)
O=C(Nc1ccc(C(=O)O)cc1)Nc1cccc([N+](=O)[O-])c1,IC50,Leucine aminopeptidase,16.1 µM (active)
Cn1c(N)c(C(=O)COC(=O)CCC2CCCCC2)c(=O)n(C)c1=O,IC50,[1],5.23 µM (active)
COc1ccc(CNc2nc(-c3ccc4c(c3)OCO4)nc3ccccc23)c(OC)c1,AC50,Cytochrome P450 2C9,0.501 µM (inconclusive)
same,AC50,Cytochrome P450 2D6,12.6 µM (inconclusive)
CCOc1ccc(NC(=O)C2CC(C)=C(C)CC2C(=O)O)cc1 (stereo not drawn),IC50,Leucine aminopeptidase,21.3 µM (active)
COC(=O)N1CCN(C(=O)Cc2ccc(Cl)c(Cl)c2)[C@H](CN2CCCC2)C1,AC50,Cytochrome P450 2D6,20 µM (inconclusive)
CO[C@H]1CN(C)C(=O)c2ccc(NC(=O)Nc3cc(F)ccc3F)cc2OC[C@@H](C)N(C)C[C@H]1C,AC50,[5],11.4 µM (active)
NCC(c1ccc(Cl)cc1Cl)c1c[nH]c2ccccc12 (stereo not drawn),EC50,[3],> 38 µM (not active)
same,AC50,[6],8.89 µM (active)
same,EC50,[4],26.2 µM (active)
COC(=O)c1c(C(=O)OC)c(-c2ccc(Cl)c(Cl)c2)n2c1CCC2,EC50,[3],> 38 µM (not active)
same,EC50,[4],> 160 µM (inactive)
C[C@H]1CN([C@@H](C)CO)S(=O)(=O)c2ccc(C#Cc3ccncc3)cc2O[C@H]1CN(C)S(=O)(=O)c1ccc(F)cc1,AC50,[5],4.11 µM (active)
CCN(CC)C(=S)Sc1c(O)nc2ccc(Cl)cc2c1-c1ccccc1,AC50,[7],27 µM (active)
same,EC50,Streptococcus,1.8 µM (active)
same,EC50,[8],0.831 µM (active)
Cc1nc(Nc2ccccc2)sc1C(=O)c1ccccc1,IC50,[1],3.41 µM (not active)
CN=C(S)NNC(=O)c1ccccc1F,IC50,[1],17.7 µM (not active)
C[C@H](CO)N1C[C@H](C)[C@H](CN(C)S(=O)(=O)c2ccccc2F)OCc2ccccc2-c2c(n(C)c3ccccc23)C1=O,AC50,[5],3.61 µM (active)
COc1ccc2c3c([nH]c2c1)[C@@H](CO)N(Cc1cccc(F)c1)CC31CCN(C(C)=O)CC1,AC50,[5],5.78 µM (active)
Cc1cc(C)c(C(=O)COC(=O)CCNS(=O)(=O)c2c(Cl)cccc2Cl)cc1C,IC50,[1],4.97 µM (not active)
CN(C)c1ccc(-c2nc(Nc3ccncc3)c3ccccc3n2)cc1,AC50,Cytochrome P450 2C9,0.794 µM (inconclusive)
same,AC50,Cytochrome P450 2D6,25.1 µM (inconclusive)
O=C(CSc1nc[nH]n1)N1N=C2/C(=C/c3ccco3)CCCC2C1c1ccco1 (stereo not drawn),IC50,Leucine aminopeptidase,2.11 µM (active)
C=CCn1c(SCC(=O)c2ccc(NS(=O)(=O)c3ccccc3)cc2)nnc1-c1cccs1,IC50,Leucine aminopeptidase,14.7 µM (active)
COc1ccc(S(=O)(=O)N(C)C[C@H]2Oc3c(NC(=O)Nc4ccc5c(c4)OCO5)cccc3C(=O)N([C@@H](C)CO)C[C@H]2C)cc1,AC50,[5],4.41 µM (active)
COc1ccccc1NC(=O)CSc1nc[nH]n1,IC50,Leucine aminopeptidase,36.8 µM (active)
CCCCC(CC)C(=O)Oc1ccc(O)c(C(C)(C)C)c1 (stereo not drawn),IC50,[1],13.5 µM (not active)
same,EC50,Streptococcus,7.84 µM (active)
same,EC50,Streptokinase A,4.96 µM (active)
same,EC50,[8],3.2 µM (active)
Cc1ccc(S(=O)(=O)NC(=O)CSc2nc3ccccc3s2)cc1,AC50,Cytochrome P450 3A4,14.1 µM (inconclusive)
same,IC50,Leucine aminopeptidase,7.77 µM (active)
CCOC(=O)c1ccccc1NC(=O)c1cccc([N+](=O)[O-])c1,EC50,[3],> 38 µM (not active)
same,EC50,[4],> 150 µM (inactive)
